Series [1] is described as follows: pH cycling study: remineralization of artificial lesions (SMH, EFU). Also on record: species or system Bovine. The settings on record: five days, calcium compounds used together with 100 ppm F treatments. As to the method: A pH cycling study was performed. The study was developed to simulate the spike in acid production after three meals during the course of a day.
Bovine enamel specimens were polished and artificial lesions formed by immersion of the specimens in a lesion forming solution consisting of 0.1 M lactic acid and 0.2% Carbopol C907 which was 50% saturated with hydroxyapatite and adjusted to pH 5.0. The average specimen surface microhardness (SMH) was determined from four indentations on the surface of each specimen, using a Vickers hardness indenter at a load of 200 g for 15 seconds. […] Specimens were divided into subgroups of 18 specimens balanced by post-demineralization surface microhardness (SMH) values.
Remineralization efficacy was evaluated under two different cyclic treatment regimens. Both regimens consisted of three one-minute fluoride treatment periods (100 ppm, pH=6.5), and three one-hour acid challenges in the lesion forming solution, with calcium introduced during the acid challenges.
The difference between the two treatment regimens was the relative order of the fluoride treatments and the acid challenges. In Regimen I, shown in Table 1, the demineralization event (Demin: Lactic Acid Challenge) occurred first, followed by the remineralization event (Remin: Artificial Saliva Soak). In Regimen II, shown in Table 2, the order of events was reversed, and the remineralization event occurred first, followed by the demineralization event.
During the acid challenge periods (Demin: Lactic Acid Challenge), a 15 ml aliquot of the lesion forming solution was transferred to a treatment beaker containing six enamel specimens. Calcium compounds at equimolar calcium concentration, were introduced to the solution 20 minutes after the start of the acid challenge.
The pH cycling regimens were repeated for five consecutive days. […] As a negative control, the calcium sources, as well as the fluoride source, were replaced with water. Also, for comparison purposes, a study was performed with only the fluoride source.
After five days of treatment and pH cycling, remineralization efficacy was measured from change in surface microhardness (SMH) and enamel fluoride uptake (EFU). The surface microhardness was measured as described above, where the indentations were measured next to the baseline indentations. The fluoride content was determined by micro-drilling to a depth of 100 micron into each tooth. The enamel powder from the drill hole was collected, dissolved (20 microliter of HClO4, 40 microliter Citrate/EDTA Buffer and 40 microliter deionized (DI) water) and analyzed for fluoride by comparison to a similarly prepared standard curve.

The nature of series [2]: pH study: change in pH of lesion forming solution after addition of calcium compounds. It is filed as physicochemical. The settings on record: 8 mM Ca added to lesion forming solution (pH 5.0), stirred 30 minutes at 37 degrees C.
Method: Powders were added and allowed to stir for 30 minutes at 37 degrees C. before measuring the pH.

Regarding `O=P([O-])([O-])[O-].O=P([O-])([O-])[O-].[Ca+2].[Ca+2].[Ca+2]` [Alpha-Tricalcium Phosphate], in series [1] (Regimen I), the “EFU, comparison between treatment groups (in words)” value (“EFU … (in words)” below) is “comparable to the EFU of the highly soluble calcium compound (Calcium Chloride Dihydrate) treated specimens” and the “SMH, comparison between treatment groups (in words)” value (from here on “SMH … (in words)”) is given as “comparable to the SMH of the highly soluble calcium compound (Calcium Chloride Dihydrate) treated specimens”. In series [1] (Regimen II), the “EFU … (in words)” value is on record as “equivalent to the EFU of the specimens only treated with 100 ppm F” and the “SMH … (in words)” value is on record as “comparable to the SMH of the specimens only treated with 100 ppm F”. Besides, the ΔpH result in series [2] is recorded as “+0.33”.

As to `O.O.[Ca+2].[Cl-].[Cl-]` [Calcium Chloride Dihydrate, reference compound], in series [1] (Regimen II), the “EFU … (in words)” value is given as “highest values of EFU” and the “SMH … (in words)” value was “highest values of SMH”.
